Assay results taken from BindingDB's records for PubMed 11160626 (Japan Tobacco, 2001).

Columns and labels:
Cannabinoid receptor 2 [1] = target: Cannabinoid receptor 2 (Mus musculus, UniProt P47936)
Cannabinoid receptor 2 [2] = target: T1, Cannabinoid receptor 2 (Rattus norvegicus, UniProt Q9QZN9)
T1 sequence (Q9QZN9 whole entry): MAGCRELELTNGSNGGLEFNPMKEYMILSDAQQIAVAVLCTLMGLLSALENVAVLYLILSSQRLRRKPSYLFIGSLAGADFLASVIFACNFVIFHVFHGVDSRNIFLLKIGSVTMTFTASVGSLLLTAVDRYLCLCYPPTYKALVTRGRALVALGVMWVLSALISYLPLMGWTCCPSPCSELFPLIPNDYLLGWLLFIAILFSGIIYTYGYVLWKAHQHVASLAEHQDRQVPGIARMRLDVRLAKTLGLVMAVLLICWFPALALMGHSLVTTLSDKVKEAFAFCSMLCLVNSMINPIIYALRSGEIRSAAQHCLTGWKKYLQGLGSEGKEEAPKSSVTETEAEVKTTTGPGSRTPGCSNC

Cannabinoid receptor 1 [3] = target: Cannabinoid receptor 1 (Rattus norvegicus, UniProt P20272)
Chain of Cannabinoid receptor 1 (Rattus norvegicus, UniProt P20272) (P20272 whole entry): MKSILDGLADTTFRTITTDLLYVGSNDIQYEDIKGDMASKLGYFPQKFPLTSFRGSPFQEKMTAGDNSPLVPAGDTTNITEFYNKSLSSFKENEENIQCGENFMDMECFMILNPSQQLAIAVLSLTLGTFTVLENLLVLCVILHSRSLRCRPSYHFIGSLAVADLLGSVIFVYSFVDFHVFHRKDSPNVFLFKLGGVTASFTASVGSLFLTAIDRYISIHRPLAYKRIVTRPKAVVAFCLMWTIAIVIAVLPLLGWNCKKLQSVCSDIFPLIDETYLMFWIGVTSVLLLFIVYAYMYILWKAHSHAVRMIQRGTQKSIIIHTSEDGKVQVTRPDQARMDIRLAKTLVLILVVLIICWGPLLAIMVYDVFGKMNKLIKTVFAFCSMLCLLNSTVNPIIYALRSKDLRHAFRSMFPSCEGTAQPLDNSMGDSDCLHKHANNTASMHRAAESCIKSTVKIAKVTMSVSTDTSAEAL

Cannabinoid receptor 1 [4] = target: Cannabinoid receptor 1 (Mus musculus, UniProt P47746)
Chain of Cannabinoid receptor 1 (Mus musculus, UniProt P47746) (P47746 whole entry): as the sequence (P20272 whole entry) above, with E95D counted along it

Chain of Cannabinoid receptor 2 (Mus musculus, UniProt P47936) (P47936 whole entry): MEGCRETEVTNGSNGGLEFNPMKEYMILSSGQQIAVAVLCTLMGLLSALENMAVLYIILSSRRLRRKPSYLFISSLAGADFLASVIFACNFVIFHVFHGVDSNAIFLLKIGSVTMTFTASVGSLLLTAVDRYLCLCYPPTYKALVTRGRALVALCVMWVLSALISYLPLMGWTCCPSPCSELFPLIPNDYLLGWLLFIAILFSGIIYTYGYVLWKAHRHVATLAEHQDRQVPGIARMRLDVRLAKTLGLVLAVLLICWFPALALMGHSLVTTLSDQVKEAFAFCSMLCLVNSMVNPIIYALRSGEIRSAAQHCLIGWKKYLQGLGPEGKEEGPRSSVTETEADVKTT

SMILES: Cc1c(C(=O)c2cccc3ccccc23)c2cccc3c2n1[C@H](CN1CCOCC1)CO3 [WIN55212-2]
- Ki (Cannabinoid receptor 2 [1]): 0.56 nM

SMILES: CCCCCOc1c(OC)ccc2cc(C(=O)NCc3ccc4c(c3)OCO4)c(=O)[nH]c12 [N-(1,3-Benzodioxole-5-ylmethyl)-2-oxo-7-methoxy-8-pentoxy-1,2-dihydro-3-quinolinecarboxamide]
- Ki (Cannabinoid receptor 2 [1]): 1.55 nM
- Ki (Cannabinoid receptor 2 [2]): 0.38 nM
- Ki (Cannabinoid receptor 1 [3]): 1050 nM
- Ki (Cannabinoid receptor 1 [4]): 1060 nM

SMILES: CCCCCc1cc(O)c2c(c1)OC(C)(C)[C@@H]1CCC(C)=CC21 (stereo partly specified) [Tetrahydrocannabinol]
- Ki (Cannabinoid receptor 2 [1]): 1.73 nM
